Test results published in US9040545B2, “Heterocyclyl pyrazolopyrimidine analogues as selective JAK inhibitors” (Cellzome Limited, priority 2010, dated 2015).

Tests used:
[1] = biological target: T1, Aurora B (Homo sapiens, UniProt Q96GD4); test: Kinobeads assay, Aurora B; assay type: binding; conditions: for IC50: lysate of pervanadate-treated Jurkat cells, read-out: Inhibition values (IC50) Aur B
T1 construct: cell lysates from Jurkat cells (ATCC TIB-152) used; endogenous in cells; host or cells: Jurkat cells (ATCC TIB-152), treated with pervanadate
T1 sequence (Q96GD4 whole entry): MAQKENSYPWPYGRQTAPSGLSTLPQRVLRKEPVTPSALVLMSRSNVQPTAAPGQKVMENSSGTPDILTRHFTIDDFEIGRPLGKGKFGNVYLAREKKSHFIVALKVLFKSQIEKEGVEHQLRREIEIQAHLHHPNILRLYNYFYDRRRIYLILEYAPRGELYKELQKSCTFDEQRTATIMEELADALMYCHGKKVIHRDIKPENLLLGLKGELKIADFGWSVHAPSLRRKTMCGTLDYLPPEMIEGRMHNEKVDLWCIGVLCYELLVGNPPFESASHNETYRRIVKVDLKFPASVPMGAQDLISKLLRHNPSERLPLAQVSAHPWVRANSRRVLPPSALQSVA

[2] = biological target: T2, JAK2 (Homo sapiens, UniProt O60674); test: Kinobeads assay, JAK2; assay type: binding; conditions: mixed Molt4/Ramos lysate, read-out: Inhibition values (IC50) JAK2
T2 construct: endogenous in cells; host or cells: mixed Molt4/Ramos lysate (1:2)
T2 sequence (O60674 whole entry): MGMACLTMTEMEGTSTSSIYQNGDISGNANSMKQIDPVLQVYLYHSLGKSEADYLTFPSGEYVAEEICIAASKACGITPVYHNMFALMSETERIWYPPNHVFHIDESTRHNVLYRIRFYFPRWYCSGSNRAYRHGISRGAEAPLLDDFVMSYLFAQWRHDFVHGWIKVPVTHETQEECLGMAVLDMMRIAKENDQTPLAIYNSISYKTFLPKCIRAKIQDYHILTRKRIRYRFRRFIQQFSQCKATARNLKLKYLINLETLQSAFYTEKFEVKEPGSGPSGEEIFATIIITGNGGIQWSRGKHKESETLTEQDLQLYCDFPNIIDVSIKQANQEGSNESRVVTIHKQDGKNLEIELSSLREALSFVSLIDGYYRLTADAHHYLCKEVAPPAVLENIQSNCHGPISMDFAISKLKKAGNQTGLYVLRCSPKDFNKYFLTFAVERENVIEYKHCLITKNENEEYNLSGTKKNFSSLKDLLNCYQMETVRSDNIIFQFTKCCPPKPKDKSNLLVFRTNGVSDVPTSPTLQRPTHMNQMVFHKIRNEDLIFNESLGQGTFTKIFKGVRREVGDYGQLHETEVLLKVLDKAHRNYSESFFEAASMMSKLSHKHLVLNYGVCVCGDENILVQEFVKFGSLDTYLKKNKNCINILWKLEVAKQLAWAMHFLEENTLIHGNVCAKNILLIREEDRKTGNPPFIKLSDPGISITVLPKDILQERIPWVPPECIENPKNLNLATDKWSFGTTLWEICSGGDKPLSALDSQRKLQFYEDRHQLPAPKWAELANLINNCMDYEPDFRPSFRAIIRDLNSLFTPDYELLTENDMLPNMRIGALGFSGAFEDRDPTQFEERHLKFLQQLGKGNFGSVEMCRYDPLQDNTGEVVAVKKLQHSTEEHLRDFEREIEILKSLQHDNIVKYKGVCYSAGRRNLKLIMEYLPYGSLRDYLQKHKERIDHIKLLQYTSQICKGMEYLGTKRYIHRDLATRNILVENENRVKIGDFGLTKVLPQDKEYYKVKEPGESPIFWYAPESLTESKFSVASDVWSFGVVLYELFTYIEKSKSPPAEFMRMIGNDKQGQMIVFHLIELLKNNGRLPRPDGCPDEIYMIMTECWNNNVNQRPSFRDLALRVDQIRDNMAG
In short: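 IC50 values come from dose-response curves of JAK2/JAK3 captured on immobilized aminopyrido-pyrimidine beads, quantified by antibody dot blot with infrared read-out. Compounds (1:3 series, 9 steps, from 5 mM DMSO stock) competed for 3 h in the cold with mixed Molt4/Ramos lysate (1:2, 10 mg/mL protein).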

| SMILES | JAK3/AurB Fold Selectivity [1] | IC50 [1] [µM] | IC50 [2] [µM] |
| --- | --- | --- | --- |
| OCCn1cc(Nc2ncc3cnn(Cc4cc(F)cc(N5CCNCC5)c4)c3n2)cn1 [Example 93, 2-(4-((1-(3-fluoro-5-(piperazin-1-yl)benzyl)-1H-pyrazolo[3,4-d]pyrimidin-6-yl)amino)-1H-pyrazol-1-yl)ethanol] | 10-50 Fold | 0.1 to 1 | 1 to 10 |
| Fc1cc(N2CCOCC2)c(F)c(Cn2ncc3cnc(Nc4cnn(CC5CCNC5)c4)nc32)c1F (stereo not drawn) [Example 94, N-(1-(pyrrolidin-3-ylmethyl)-1H-pyrazol-4-yl)-1-(2,3,6-trifluoro-5-morpholinobenzyl)-1H-pyrazolo[3,4-d]pyrimidin-6-amine] | >50 Fold | 1 to 10 | 1 to 10 |
| Cn1cc(Nc2ncc3cnn(Cc4cc(F)cc(N5CCNCC5)c4F)c3n2)cn1 [Example 95, 1-(2,5-difluoro-3-(piperazin-1-yl)benzyl)-N-(1-methyl-1H-pyrazol-4-yl)-1H-pyrazolo[3,4-d]pyrimidin-6-amine] | 10-50 Fold | 0.1 to 1 | 0.1 to 1 |
| OCCn1cc(Nc2ncc3cnn(Cc4cc(F)cc(N5CCNCC5)c4F)c3n2)cn1 [Example 96, 2-(4-((1-(2,5-difluoro-3-(piperazin-1-yl)benzyl)-1H-pyrazolo[3,4-d]pyrimidin-6-yl)amino)-1H-pyrazol-1-yl)ethanol] | >50 Fold | ≥ 10 | 0.1 to 1 |
| CN(C)CC(F)Cn1cc(Nc2ncc3cnn(Cc4cc(F)cc(N5CCOCC5=O)c4)c3n2)cn1 (stereo not drawn) [Example 97, 4-(3-((6-((1-(3-(dimethylamino)-2-fluoropropyl)-1H-pyrazol-4-yl)amino)-1H-pyrazolo[3,4-d]pyrimidin-1-yl)methyl)-5-fluorophenyl)morpholin-3-one] | >50 Fold | 1 to 10 | 1 to 10 |
| Cn1cc(Nc2ncc3cnn(Cc4cc(C(=O)N5CCOCC5)cc(F)c4F)c3n2)cn1 [Example 98, (3,4-difluoro-5-((6-((1-methyl-1H-pyrazol-4-yl)amino)-1H-pyrazolo[3,4-d]pyrimidin-1-yl)methyl)phenyl)(morpholino)methanone] | 3-10 Fold | < 0.1 | 1 to 10 |
| CNCCCn1cc(Nc2ncc3cnn(Cc4cc(F)cc(N5CCOCC5=O)c4)c3n2)cn1 [Example 99, 4-(3-fluoro-5-((6-((1-(3-(methylamino)propyl)-1H-pyrazol-4-yl)amino)-1H-pyrazolo[3,4-d]pyrimidin-1-yl)methyl)phenyl)morpholin-3-one] | 3-10 Fold | < 0.1 | 1 to 10 |
| Cn1cc(Nc2ncc3cnn(Cc4cccc(N5CCN(S(C)(=O)=O)CC5)c4)c3n2)cn1 [Example 100, N-(1-methyl-1H-pyrazol-4-yl)-1-(3-(4-(methylsulfonyl)piperazin-1-yl)benzyl)-1H-pyrazolo[3,4-d]pyrimidin-6-amine] | 10-50 Fold | 1 to 10 | ≥ 10 |
| O=C1COCCN1c1cc(F)cc(Cn2ncc3cnc(Nc4cnn(CC5CCNC5)c4)nc32)c1 (stereo not drawn) [Example 101, 4-(3-fluoro-5-((6-((1-(pyrrolidin-3-ylmethyl)-1H-pyrazol-4-yl)amino)-1H-pyrazolo[3,4-d]pyrimidin-1-yl)methyl)phenyl)morpholin-3-one] | 10-50 Fold | 0.1 to 1 | 1 to 10 |
| O=C1COCCN1c1cc(F)cc(Cn2ncc3cnc(Nc4cnn(C5CCNCC5)c4)nc32)c1 [Example 102, 4-(3-fluoro-5-((6-((1-(piperidin-4-yl)-1H-pyrazol-4-yl)amino)-1H-pyrazolo[3,4-d]pyrimidin-1-yl)methyl)phenyl)morpholin-3-one] | 10-50 Fold | 0.1 to 1 | 0.1 to 1 |
| Cn1cc(Nc2ncc3cnn(Cc4cccc(N5CCOCC5)c4Cl)c3n2)cn1 [Example 103, 1-(2-chloro-3-morpholinobenzyl)-N-(1-methyl-1H-pyrazol-4-yl)-1H-pyrazolo[3,4-d]pyrimidin-6-amine] | 3-10 Fold | 0.1 to 1 | 1 to 10 |
| Cn1cc(Nc2ncc3cnn(Cc4cccc(N5CCC6(COC6)C5)c4)c3n2)cn1 [Example 104, 1-(3-(2-oxa-6-azaspiro[3.4]octan-6-yl)benzyl)-N-(1-methyl-1H-pyrazol-4-yl)-1H-pyrazolo[3,4-d]pyrimidin-6-amine] | 10-50 Fold | 1 to 10 | ≥ 10 |
| O=C1CC(Cn2cc(Nc3ncc4cnn(Cc5cc(F)cc(N6CCOCC6=O)c5)c4n3)cn2)CN1 (stereo not drawn) [Example 105, 4-(3-fluoro-5-((6-((1-((5-oxopyrrolidin-3-yl)methyl)-1H-pyrazol-4-yl)amino)-1H-pyrazolo[3,4-d]pyrimidin-1-yl)methyl)phenyl)morpholin-3-one] | >50 Fold | 0.1 to 1 | 1 to 10 |
| O=C1COCCN1c1cc(F)cc(Cn2ncc3cnc(Nc4cnn(CCS(=O)(=O)NC5CC5)c4)nc32)c1 [Example 106, N-cyclopropyl-2-(4-((1-(3-fluoro-5-(3-oxomorpholino)benzyl)-1H-pyrazolo[3,4-d]pyrimidin-6-yl)amino)-1H-pyrazol-1-yl)ethanesulfonamide] | 10-50 Fold | 0.1 to 1 | 1 to 10 |
| N#CCCn1cc(Nc2ncc3cnn(Cc4cc(F)cc(N5CCOCC5=O)c4)c3n2)cn1 [Example 107, 3-(4-((1-(3-fluoro-5-(3-oxomorpholino)benzyl)-1H-pyrazolo[3,4-d]pyrimidin-6-yl)amino)-1H-pyrazol-1-yl)propanenitrile] | 10-50 Fold | 0.1 to 1 | 1 to 10 |
| Cn1cc(Nc2ncc3cnn(Cc4cccc(N5CCC(=O)CC5)c4)c3n2)cn1 [Example 108, 1-(3-((6-((1-methyl-1H-pyrazol-4-yl)amino)-1H-pyrazolo[3,4-d]pyrimidin-1-yl)methyl)phenyl)piperidin-4-one] | 10-50 Fold | 1 to 10 | ≥ 10 |
| O=C(Cn1cc(Nc2ncc3cnn(Cc4cc(F)cc(N5CCOCC5=O)c4)c3n2)cn1)N1CCNCC1 [Example 109, 4-(3-fluoro-5-((6-((1-(2-oxo-2-(piperazin-1-yl)ethyl)-1H-pyrazol-4-yl)amino)-1H-pyrazolo[3,4-d]pyrimidin-1-yl)methyl)phenyl)morpholin-3-one] | 10-50 Fold | 0.1 to 1 | 1 to 10 |
| Cn1cc(Nc2ncc3cnn(Cc4c(F)c(F)cc(C(=O)N5CCOCC5)c4F)c3n2)cn1 [Example 110, morpholino(2,4,5-trifluoro-3-((6-((1-methyl-1H-pyrazol-4-yl)amino)-1H-pyrazolo[3,4-d]pyrimidin-1-yl)methyl)phenyl)methanone] | 3-10 Fold | 0.1 to 1 | 0.1 to 1 |
| O=C(c1cc(F)c(F)c(Cn2ncc3cnc(Nc4cnn(CCO)c4)nc32)c1F)N1CCOCC1 [Example 111, morpholino(2,4,5-trifluoro-3-((6-((1-(2-hydroxyethyl)-1H-pyrazol-4-yl)amino)-1H-pyrazolo[3,4-d]pyrimidin-1-yl)methyl)phenyl)methanone] | 10-50 Fold | 0.1 to 1 | 1 to 10 |
| C[C@H]1COCCN1c1cccc(Cn2ncc3cnc(Nc4cnn(C)c4)nc32)c1 [Example 112, (S)-N-(1-methyl-1H-pyrazol-4-yl)-1-(3-(3-methylmorpholino)benzyl)-1H-pyrazolo[3,4-d]pyrimidin-6-amine] | >50 Fold | 1 to 10 | ≥ 10 |
| C[C@@H]1COCCN1c1cccc(Cn2ncc3cnc(Nc4cnn(C)c4)nc32)c1 [Example 113, (R)-N-(1-methyl-1H-pyrazol-4-yl)-1-(3-(3-methylmorpholino)benzyl)-1H-pyrazolo[3,4-d]pyrimidin-6-amine] | >50 Fold | 1 to 10 | ≥ 10 |
| Cn1cc(Nc2ncc3cnn(Cc4cccc(NC5COC5)c4)c3n2)cn1 [Example 114, N-(1-methyl-1H-pyrazol-4-yl)-1-(3-(oxetan-3-ylamino)benzyl)-1H-pyrazolo[3,4-d]pyrimidin-6-amine] | 10-50 Fold | 0.1 to 1 | 1 to 10 |
| Cn1cc(Nc2ncc3cnn(Cc4cccc(-c5cnn(C)c5)c4)c3n2)cn1 [Example 115, N-(1-methyl-1H-pyrazol-4-yl)-1-(3-(1-methyl-1H-pyrazol-4-yl)benzyl)-1H-pyrazolo[3,4-d]pyrimidin-6-amine] | >50 Fold | 1 to 10 | 1 to 10 |
| CCn1cc(-c2cccc(Cn3ncc4cnc(Nc5cnn(C)c5)nc43)c2)cn1 [Example 116, 1-(3-(1-ethyl-1H-pyrazol-4-yl)benzyl)-N-(1-methyl-1H-pyrazol-4-yl)-1H-pyrazolo[3,4-d]pyrimidin-6-amine] | >50 Fold | 1 to 10 | 1 to 10 |
| CC(C)n1cc(-c2cccc(Cn3ncc4cnc(Nc5cnn(C)c5)nc43)c2)cn1 [Example 117, 1-(3-(1-isopropyl-1H-pyrazol-4-yl)benzyl)-N-(1-methyl-1H-pyrazol-4-yl)-1H-pyrazolo[3,4-d]pyrimidin-6-amine] | >50 Fold | ≥ 10 | ≥ 10 |
| Cn1cc(Nc2ncc3cnn(Cc4cccc(-c5cn[nH]c5)c4)c3n2)cn1 [Example 118, 1-(3-(1H-pyrazol-4-yl)benzyl)-N-(1-methyl-1H-pyrazol-4-yl)-1H-pyrazolo[3,4-d]pyrimidin-6-amine] | 10-50 Fold | 1 to 10 | ≥ 10 |
